Data on one sequence can be found in patent publication US20150093333A1, “COMPOSITIONS, METHODS AND USES FOR PEPTIDES IN DIAGNOSIS, PROGRESSION AND TREATMENT OF CANCERS” (THE REGENTS OF THE UNIVERSITY OF COLORADO, body corporate, priority 2003, published 2015).

As a reminder, the Kd is the constant that tells how readily two partners part at equilibrium. High values mean weaker binding, low ones tighter binding.

In experiment [1] the target is lipid vesicles 60% POPC:15% cholesterol:15% POPE:10% POPS. In words: Fluorescence anisotropy titration of NBD-labeled MARCKS peptides with lipid vesicles. It counts as binding. The method, then: In another example, because fluorescence enhancement assays could not distinguish the contributions between different degrees of membrane penetration and binding affinity, fluorescence anisotropy assay was performed to specifically measure the binding affinity of the MARCKS derived peptides. The NBD-labeled peptides (1 μM) were titrated by synthetic liposomes of various sizes (30, 100, and 400 nm). Fluorescence anisotropy was recorded using a Fluorolog-3 fluorometer. The mixture was allowed to equilibrate for 2 minutes prior to the next titration. The excitation wavelength was set to λex=480 nm whereas the emission filter was set to λem=545 nm. The voltage was set to 250 V throughout the experiment. Blank PBS (pH=7.40) was titrated to NBD-labeled peptides as a negative control, where negligible anisotropy change was observed. The following equation was used to determine the dissociation constants as previously reported: Fb=Kp [L]/(1+KP[L]), where Fb expresses the fraction of peptide bound to lipids, Kp expresses the molar partition coefficient and [L] expresses the lipid concentration.
Lipid vesicles were titrated to NBD-labeled MARCKS-ED, MARCKSmut1, or MARCKSmut2 peptides. Since the peptide partitions between the hydrophobic lipid bilayer and the aqueous solvent, the molar partition coefficient is often reported. By definition, the apparent dissociation constant (Kd), described as the lipid concentration where 50% of the peptide is bound, is the reciprocal of the molar partition coefficient (Kp). Fluorescence anisotropy assay results indicated efficient curvature sensing by MARCKS-ED. FIG. 4C represents an exemplary fluorescence anisotropy titration of MARCKS-ED with various lipid vesicles. FIG. 4D provides data of fluoresence anisotropy titration of various MARCKS derived peptides. Lipid vesicles used in the experiments represented by FIGS. 4C-4D contained 60% POPC:15% cholesterol: 15% POPE: 10% POPS. […] As a comparison, C2AB illustrated a 1.9 fold increase in binding to smaller vesicles (105 nm) relative to the larger ones (252 nm). […] In addition, electrostatic interactions of MARCKSmut2 were also compromised. […] Such defects would permit the Phe residue to insert and stabilize the highly curved membranes.
On the technique in general: In fluorescence polarisation assays a small probe gives low polarisation when free and higher when bound to something large.

Experiment [2] deals with PS-exposing cell membranes. In words: Fluorescence staining of PS-exposing membranes in dissected gonads of C. elegans. The experiment is classed as in vivo. As to conditions: wild type (N2), tat-1(tm3117) and ced-7(n2094) animals. The method, then:
Fluorescence staining assays were carried out in an acceptible C. elegans model with PS-exposing cell membranes. […] NBD-MARCKS-ED was used to stain the dissected gonads of wild type (N2) animals, tat-1(tm3117) mutant animals, and engulfment-deficient ced-7 (n2094) mutant animals, respectively. 36 hour old hermaphrodite adult animals were collected and gently dissected by cutting their heads in a depression slide with a gonad dissection buffer (previously presented) to expose the gonads. The exposed gonads were then washed once in the dissection buffer and transferred to a dissection buffer containing 4 μM of Hoechst 33342 and 20 μM of NBD labeled MARCKS-ED peptide, 20 μM NBD-MARCKSmut1 peptide, or 10 nM Alexa Fluor 488-conjugated Annexin-V for 45 minutes. Gonads were washed one more time in the dissection buffer, placed on a 5% agarose pad, and visualized using a Nomarski microscope equipped with an epifluorescence detector.
FIGS. 6A-6C illustrate exemplary staining results using MARCKS derived peptides and Annexin V. PS is typically kept in the inner leaflet of plasma membranes in living cells and is exposed on the cell surface only under certain cellular events, i.e., when cells undergo apoptosis or lose the ability to maintain the PS asymmetry with a tat-1 gene mutation. FIG. 6A represents the staining results with labeled MARCKS-ED in wild type and mutants C. elegans. […] FIG. 6B represents the staining results with labeled MARCKSmut1 in wild type and mutants C. elegans. […] In FIGS. 6A-6B, nuclei were stained with Hoechst 33342. Annexin-V, a known PS-sensor, was also used to stain the gonads of tat-1 and ced-7 mutant C. elegans. […] Hoechst33342 (4 μM), FITC-AnnexinV (10 nM) and Nomarski images are shown. […] Scale bar=10 μm.

For the sequence KKKKKRFSFKKSFKLSGFSFKKNKK [MARCKS-ED], the Kd was determined as 24 ± 3 µM in experiment [1] (30 nm pore size lipid vesicles containing 10% PS), 42 ± 13 µM in experiment [1] (100 nm pore size lipid vesicles containing 10% PS) and 86 ± 20 µM in experiment [1] (400 nm pore size lipid vesicles containing 10% PS). In experiment [2], the “staining of PS-exposed membranes” value is “recognizes PS exposed on the surface of all germ cells in the tat-1 (tm3117) mutant and un-engulfed apoptotic germ cell corpses in the ced-7(n2094) mutant”.
